Data published in ChEMBL document CHEMBL1909294, “Translating clinical findings into knowledge in drug safety evaluation--drug induced liver injury prediction system (DILIps)” (PLoS Comput Biol, 2011).

What was measured:
[1] = test system: Hepatotoxicity;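 as to HepSE Combined Scores: combined hepatic side effect score as listed in the training data of the Drug Induced Liver Injury Prediction System (DILIps)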;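 as to HepSE cholelithiasis: hepatic side effect score for cholelithiasis, drawn from the DILIps training data for predicting drug-induced liver injury; call rule not given here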;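 as to HepSE cirrhosis: cirrhosis hepatic side effect score taken from the DILIps (drug-induced liver injury prediction) training set; call rule not given here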;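 as to HepSE elevated liver function tests: hepatic side effect score for raised liver function tests, as recorded in the DILIps training set used for predicting drug-induced liver injury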;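 as to HepSE hepatic necrosis: score of hepatic side effects for hepatic necrosis, drawn from the training data of DILIps, a prediction system for drug-induced liver injury; call rule not given here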;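 as to HepSE jaundice: Jaundice-related hepatic side-effect score drawn from the training data of the DILIps (drug-induced liver injury prediction system); call rule not given here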
[2] = test system: Hepatotoxicity; remark: listed apart in the source;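 as to HepSE Combined Scores: combined hepatic side effect score as listed in the training data of the Drug Induced Liver Injury Prediction System (DILIps)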;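 as to HepSE cholelithiasis: hepatic side effect score for cholelithiasis, drawn from the DILIps training data for predicting drug-induced liver injury; call rule not given here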;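 as to HepSE cirrhosis: cirrhosis hepatic side effect score taken from the DILIps (drug-induced liver injury prediction) training set; call rule not given here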;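 as to HepSE elevated liver function tests: hepatic side effect score for raised liver function tests, as recorded in the DILIps training set used for predicting drug-induced liver injury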;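 as to HepSE hepatic necrosis: score of hepatic side effects for hepatic necrosis, drawn from the training data of DILIps, a prediction system for drug-induced liver injury; call rule not given here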;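 as to HepSE jaundice: Jaundice-related hepatic side-effect score drawn from the training data of the DILIps (drug-induced liver injury prediction system); call rule not given here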
[3] = test system: Hepatotoxicity; remark: listed apart in the source;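 as to HepSE Combined Scores: combined hepatic side effect score as listed in the training data of the Drug Induced Liver Injury Prediction System (DILIps)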;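 as to HepSE cholelithiasis: hepatic side effect score for cholelithiasis, drawn from the DILIps training data for predicting drug-induced liver injury; call rule not given here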;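 as to HepSE cirrhosis: cirrhosis hepatic side effect score taken from the DILIps (drug-induced liver injury prediction) training set; call rule not given here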;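 as to HepSE elevated liver function tests: hepatic side effect score for raised liver function tests, as recorded in the DILIps training set used for predicting drug-induced liver injury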;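 as to HepSE hepatic necrosis: score of hepatic side effects for hepatic necrosis, drawn from the training data of DILIps, a prediction system for drug-induced liver injury; call rule not given here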;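 as to HepSE jaundice: Jaundice-related hepatic side-effect score drawn from the training data of the DILIps (drug-induced liver injury prediction system); call rule not given here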
[4] = test system: Hepatotoxicity; remark: listed apart in the source;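 as to HepSE cholelithiasis: hepatic side effect score for cholelithiasis, drawn from the DILIps training data for predicting drug-induced liver injury; call rule not given here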;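 as to HepSE cirrhosis: cirrhosis hepatic side effect score taken from the DILIps (drug-induced liver injury prediction) training set; call rule not given here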;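 as to HepSE elevated liver function tests: hepatic side effect score for raised liver function tests, as recorded in the DILIps training set used for predicting drug-induced liver injury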;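 as to HepSE hepatic necrosis: score of hepatic side effects for hepatic necrosis, drawn from the training data of DILIps, a prediction system for drug-induced liver injury; call rule not given here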;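 as to HepSE jaundice: Jaundice-related hepatic side-effect score drawn from the training data of the DILIps (drug-induced liver injury prediction system); call rule not given here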
[5] = test system: Hepatotoxicity; remark: listed apart in the source
[6] = test system: Hepatotoxicity; remark: listed apart in the source
[7] = test system: Hepatotoxicity; remark: listed apart in the source
[8] = test system: Hepatotoxicity; remark: listed apart in the source
[9] = test system: Hepatotoxicity; remark: listed apart in the source
[10] = test system: Hepatotoxicity; remark: listed apart in the source
[11] = test system: Hepatotoxicity; remark: listed apart in the source
[12] = test system: Hepatotoxicity; remark: listed apart in the source
[13] = test system: Hepatotoxicity; remark: listed apart in the source
[14] = test system: Hepatotoxicity; remark: listed apart in the source

| SMILES | HepSE_cholelithiasis [1] | HepSE_jaundice [2] | HepSE_hepatic necrosis [3] | HepSE_cirrhosis [4] | HepSE_elevated liver function tests [5] | HepSE_Combined Scores [6] | HepSE_liver disease [7] | HepSE_liver fatty [8] | HepSE_bilirubinemia [9] | HepSE_cholecystitis [10] | HepSE_hepatomegaly [11] | HepSE_liver function tests abnormal [12] | HepSE_hepatitis [13] | HepSE_hepatic failure [14] | other results |
| --- | --- | --- | --- | --- | --- | --- | --- | --- | --- | --- | --- | --- | --- | --- | --- |
| CC1COc2c(N3CCN(C)CC3)c(F)cc3c(=O)c(C(=O)O)cn1c23 (stereo not drawn) [OFLOXACIN] | 1 | 1 | 1 | 0 | 0 | 6 | 0 | 0 | 0 | 1 | 0 | 0 | 1 | 1 |  |
| Cc1cc2c(s1)Nc1ccccc1N=C2N1CCN(C)CC1 [OLANZAPINE] | 0 | 1 | 0 | 0 | 0 | 4 | 0 | 1 | 1 | 0 | 0 | 0 | 1 | 0 |  |
| CCCc1nc(C(C)(C)O)c(C(=O)OCc2oc(=O)oc2C)n1Cc1ccc(-c2ccccc2-c2nnn[nH]2)cc1 [OLMESARTAN MEDOXOMIL] | 0 | 1 | 0 | 0 | 0 | 1 | 0 | 0 | 0 | 0 | 0 | 0 | 0 | 0 |  |
| CN(C)CC/C=C1/c2ccccc2COc2ccc(CC(=O)O)cc21 [OLOPATADINE] | 0 | 0 | 0 | 0 | 0 | 0 | 0 | 0 | 0 | 0 | 0 | 0 | 0 | 0 |  |
| COc1ccc2[nH]c([S+]([O-])Cc3ncc(C)c(OC)c3C)nc2c1 (stereo not drawn) [OMEPRAZOLE] | 1 | 1 | 1 | 0 | 0 | 7 | 1 | 0 | 1 | 0 | 0 | 0 | 1 | 1 |  |
| Cc1nccn1CC1CCc2c(c3ccccc3n2C)C1=O (stereo not drawn) [ONDANSETRON] | 0 | 0 | 0 | 0 | 0 | 2 | 1 | 0 | 0 | 0 | 0 | 0 | 0 | 1 |  |
| CCCCCCCCCCC[C@@H](C[C@@H]1OC(=O)[C@H]1CCCCCC)OC(=O)[C@H](CC(C)C)NC=O [ORLISTAT] | 0 | 0 | 0 | 0 | 0 | 1 | 0 | 0 | 0 | 0 | 0 | 0 | 1 | 0 |  |
| Cc1ccccc1C(OCCN(C)C)c1ccccc1 (stereo not drawn) [ORPHENADRINE] | 0 | 0 | 0 | 0 |  | 0 | 0 | 0 | 0 | 0 | 0 |  | 0 | 0 | HepSE_elevated liver function tests ([5]; Liver): 0; HepSE_liver function tests abnormal ([12]; Liver): 0 |
| CCOC(=O)C1=C[C@@H](OC(CC)CC)[C@H](NC(C)=O)[C@@H](N)C1 [OSELTAMIVIR] | 0 | 0 | 0 | 0 | 0 | 3 | 0 | 0 | 0 | 0 | 0 | 1 | 1 | 1 |  |
| Cc1onc(-c2ccccc2)c1C(=O)N[C@@H]1C(=O)N2[C@@H]1SC(C)(C)[C@@H]2C(=O)O [OXACILLIN] | 0 | 0 | 0 | 0 | 0 | 1 | 0 | 0 | 0 | 0 | 0 | 1 | 0 | 0 |  |
| C[C@]12COC(=O)C[C@@H]1CC[C@@H]1[C@@H]2CC[C@@]2(C)[C@H]1CC[C@]2(C)O [OXANDROLONE] | 0 | 1 | 1 | 0 | 0 | 2 | 0 | 0 | 0 | 0 | 0 | 0 | 0 | 0 |  |
| O=C(O)CCc1nc(-c2ccccc2)c(-c2ccccc2)o1 [OXAPROZIN] | 0 | 1 | 0 | 0 | 0 | 3 | 0 | 0 | 0 | 0 | 0 | 0 | 1 | 1 |  |
| NC(=O)N1c2ccccc2CC(=O)c2ccccc21 [OXCARBAZEPINE] | 1 | 0 | 0 | 0 | 0 | 2 | 0 | 0 | 0 | 0 | 0 | 1 | 0 | 0 |  |
| Clc1ccc(CO/N=C(\Cn2ccnc2)c2ccc(Cl)cc2Cl)c(Cl)c1 [OXICONAZOLE] | 0 | 0 | 0 | 0 |  | 0 | 0 | 0 | 0 | 0 | 0 |  | 0 | 0 | HepSE_elevated liver function tests ([5]; Liver): 0; HepSE_liver function tests abnormal ([12]; Liver): 0 |
| C[N+](C)(C)CCO.Cn1c(=O)c2[n-]cnc2n(C)c1=O [OXTRIPHYLLINE] | 0 | 0 | 0 | 0 | 0 | 0 | 0 | 0 | 0 | 0 | 0 | 0 | 0 | 0 |  |
| CCN(CC)CC#CCOC(=O)C(O)(c1ccccc1)C1CCCCC1 (stereo not drawn) [OXYBUTYNIN] | 0 | 0 | 0 | 0 | 0 | 1 | 0 | 0 | 0 | 0 | 0 | 1 | 0 | 0 |  |
| COc1ccc2c3c1O[C@H]1C(=O)CC[C@@]4(O)[C@@H](C2)N(C)CC[C@]314 [OXYCODONE] |  |  |  |  |  |  |  |  |  |  |  |  |  |  | HepSE_cholelithiasis ([1]; Liver): 0; HepSE_jaundice ([2]; Liver): 0; HepSE_hepatic necrosis ([3]; Liver): 0; HepSE_cirrhosis ([4]; Liver): 0; HepSE_elevated liver function tests ([5]; Liver): 0; HepSE_Combined Scores ([6]; Liver): 1; HepSE_liver disease ([7]; Liver): 0; HepSE_liver fatty ([8]; Liver): 0; HepSE_bilirubinemia ([9]; Liver): 0; HepSE_cholecystitis ([10]; Liver): 0; HepSE_hepatomegaly ([11]; Liver): 1; HepSE_liver function tests abnormal ([12]; Liver): 0; HepSE_hepatitis ([13]; Liver): 0; HepSE_hepatic failure ([14]; Liver): 0 |
